In patent publication US20230158025A1 (UNIVERSITY OF UTAH RESEARCH FOUNDATION, priority 2020, published 2023):
Where two headings read alike, the source gives them in different places.

What was measured:
recombinant human GALK1 = recombinant human GALK1 (Homo sapiens, UniProt P51570); experiment: hGALK1 biochemical activity assay (Kinase-Glo Plus, ATP depletion)
Experimental: In vitro hGALK1 activity assays were performed as previously described. Liu et al., Bioorg. Med. Chem. Lett. 25(3): 721-727 (2015), which is incorporated by reference herein for the specific teachings thereof. The biochemical assay was performed by coupling the activity of recombinant human or mouse GALK1 to the Kinase-Glo Plus luminescent ATP detection kit, using ATP depletion as a measure of GALK1 turnover. Specifically, three μL/well of ATP substrate solution (35 μM ATP) in assay buffer (20 mM HEPES pH 8.0, 5 mM MgCl2, 60 mM NaCl, 1 mM DTT, 0.01% BSA final concentration) was dispensed into 1536-well assay plates (Greiner, white solid-bottom medium-binding plates). Aliquots of compound (23 nL solubilized in DMSO) were transferred to the assay plates using a Kalypsys 1536-well pintool such that 11 concentrations with 1/3 dilutions ranging from 57.4 μM-0.97 nM are tested. One μL/well of GALK-galactose solution (5 nM GALK1, 100 μM galactose) in assay buffer was then added, yielding a final reaction volume of 4 μL/well. Following a 1-hour room temperature incubation, 4 μL of Kinase-Glo Plus detection reagent was added to provide an ATP-dependent luminescent readout (final assay volume: 8 μL/well).

recombinant mouse GALK1 = recombinant mouse GALK1 (Mus musculus, UniProt Q9R0N0); experiment: mGALK1 biochemical activity assay (Kinase-Glo Plus, ATP depletion)
Experimental: In vitro hGALK1 activity assays were performed as previously described. Liu et al., Bioorg. […] The biochemical assay was performed by coupling the activity of recombinant human or mouse GALK1 to the Kinase-Glo Plus luminescent ATP detection kit, using ATP depletion as a measure of GALK1 turnover. […] One μL/well of GALK-galactose solution (5 nM GALK1, 100 μM galactose) in assay buffer was then added, yielding a final reaction volume of 4 μL/well. Following a 1-hour room temperature incubation, 4 μL of Kinase-Glo Plus detection reagent was added to provide an ATP-dependent luminescent readout (final assay volume: 8 μL/well).

[1] = rat microsomal stability (RLM)
[2] = aqueous kinetic solubility; conditions: aqueous kinetic solubility
[3] = Tables 2-15, 35 μM ATP, 100 μM galactose, 1 h, bracketed figure after some values (e.g. −1.2) is undefined and not reported, read-out: hGALK IC50
[4] = recombinant human GALK1, Kinase-Glo Plus ATP depletion, read-out: hGALK
[5] = Tables 2-15, 35 μM ATP, 100 μM galactose, 1 h, bracketed figure after some values is undefined and not reported, read-out: mGALK IC50
[6] = recombinant mouse GALK1, Kinase-Glo Plus ATP depletion, read-out: mGALK

Chain of recombinant human GALK1 (P51570 whole entry): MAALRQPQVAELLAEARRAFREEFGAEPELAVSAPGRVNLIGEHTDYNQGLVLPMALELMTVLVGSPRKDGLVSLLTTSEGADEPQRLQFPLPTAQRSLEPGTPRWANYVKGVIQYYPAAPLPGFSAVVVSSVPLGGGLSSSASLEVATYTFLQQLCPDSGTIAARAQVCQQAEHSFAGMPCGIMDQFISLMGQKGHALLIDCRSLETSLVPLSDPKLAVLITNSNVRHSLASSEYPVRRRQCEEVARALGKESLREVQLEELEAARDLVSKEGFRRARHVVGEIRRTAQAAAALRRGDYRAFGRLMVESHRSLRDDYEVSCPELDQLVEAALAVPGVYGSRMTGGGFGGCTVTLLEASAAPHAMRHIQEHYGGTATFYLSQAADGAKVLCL
Chain of recombinant mouse GALK1 (Q9R0N0 whole entry): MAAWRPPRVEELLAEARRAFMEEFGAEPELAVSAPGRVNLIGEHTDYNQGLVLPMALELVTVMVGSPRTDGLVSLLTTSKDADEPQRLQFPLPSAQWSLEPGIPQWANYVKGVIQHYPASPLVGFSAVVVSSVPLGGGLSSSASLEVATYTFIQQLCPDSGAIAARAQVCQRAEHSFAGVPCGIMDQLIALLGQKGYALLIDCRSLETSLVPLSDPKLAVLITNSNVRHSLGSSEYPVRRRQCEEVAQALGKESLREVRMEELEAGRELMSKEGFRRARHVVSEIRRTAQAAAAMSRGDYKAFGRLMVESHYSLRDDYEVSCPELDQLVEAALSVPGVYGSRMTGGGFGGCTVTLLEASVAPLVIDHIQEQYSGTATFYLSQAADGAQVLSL

| Compound | IC50 (recombinant human GALK1; [3]) [µM] | IC50 (recombinant human GALK1; [4]) [µM] | IC50 (recombinant mouse GALK1; [5]) [µM] | IC50 (recombinant mouse GALK1; [6]) [µM] | further results |
| --- | --- | --- | --- | --- | --- |
| CC1=C(C(=O)Nc2cc(C(=O)O)ccn2)[C@H](c2ccccc2Cl)N=C(Nc2nc3cccc(N)c3o2)N1 [Compound 24, (R)-2-(2-((7-aminobenzo[d]oxazol-2-yl)amino)-4-(2-chlorophenyl)-6-methyl-1,4-dihydropyrimidine-5-carboxamido)isonicotinic acid] | 0.08 | 0.86 | 1.72 | 1.72 | – |
| CC1=C(C(=O)Nc2cc(C(=O)O)ccc2C)C(c2ccccc2Cl)N=C(Nc2nc3ccc(F)cc3o2)N1 (stereo not drawn) [Compound 28, 3-(4-(2-chlorophenyl)-2-((6-fluorobenzo[d]oxazol-2-yl)amino)-6-methyl-1,4-dihydropyrimidine-5-carboxamido)-4-methylbenzoic acid] | – | 3.43 | – | 17.2 | – |
| COC(=O)c1ccnc(NC(=O)C2=C(C)NC(Nc3nc4ccc(F)cc4o3)=N[C@H]2c2ccccc2Cl)c1 [Compound 31, (R)-methyl 2-(4-(2-chlorophenyl)-2-((6-fluorobenzo[d]oxazol-2-yl)amino)-6-methyl-1,4-dihydropyrimidine-5-carboxamido)isonicotinate] | – | 3.06 | – | 4.32 | Perm. (1 × 10^−6 cm/sec) (PAMPA permeability): <21.9 1 × 10^−6 cm/sec; Metab. Stabil. (m) ([1]; microsomal half-life): 30.91 m |
| COC(=O)c1ccnc(NC(=O)C2=C(C)NC(Nc3nc4ccc(F)cc4o3)=N[C@@H]2c2ccccc2Cl)c1 [Compound 32, (S)-methyl 2-(4-(2-chlorophenyl)-2-((6-fluorobenzo[d]oxazol-2-yl)amino)-6-methyl-1,4-dihydropyrimidine-5-carboxamido)isonicotinate] | – | 12.2 | – | 86.3 | Perm. (1 × 10^−6 cm/sec) (PAMPA permeability): <7.4 1 × 10^−6 cm/sec; Metab. Stabil. (m) ([1]; microsomal half-life): 24.28 m |
| CC1=C(C(=O)NCc2cn(C)cn2)C(c2ccccc2Cl)N=C(Nc2nc3ccc(F)cc3o2)N1 (stereo not drawn) [Compound 34, 4-(2-chlorophenyl)-2-((6-fluorobenzo[d]oxazol-2-yl)amino)-6-methyl-N-((1-methyl-1H-imidazol-4-yl)methyl)-1,4-dihydropyrimidine-5-carboxamide] | – | 8.63 | – | 19.3 | – |
| CC1=C(C(=O)Nc2ccc(-c3nn[nH]n3)cn2)C(c2ccccc2Cl)N=C(Nc2nc3ccc(F)cc3o2)N1 (stereo not drawn) [Compound 35, N-(5-(2H-tetrazol-5-yl)pyridin-2-yl)-4-(2-chlorophenyl)-2-((6-fluorobenzo[d]oxazol-2-yl)amino)-6-methyl-1,4-dihydropyrimidine-5-carboxamide] | – | 4.85 | – | 12.2 | – |
| CC1=C(C(=O)Nc2ccc(C(N)=O)cn2)C(c2ccccc2Cl)N=C(Nc2nc3ccc(F)cc3o2)N1 (stereo not drawn) [Compound 36, N-(5-carbamoylpyridin-2-yl)-4-(2-chlorophenyl)-2-((6-fluorobenzo[d]oxazol-2-yl)amino)-6-methyl-1,4-dihydropyrimidine-5-carboxamide] | – | 2.43 | – | 6.85 | – |
| COc1ccc([C@@H]2N=C(Nc3nc4ccc(F)cc4o3)NC(C)=C2C(=O)Nc2cc(C(=O)O)ccn2)c(Cl)c1 [Compound 53, (R)-2-(4-(2-chloro-4-methoxyphenyl)-2-((6-fluorobenzo[d]oxazol-2-yl)amino)-6-methyl-1,4-dihydropyrimidine-5-carboxamido)isonicotinic acid] | 0.25 | 0.25 | 1.99 | 1.99 | – |
| COc1ccc([C@H]2N=C(Nc3nc4ccc(F)cc4o3)NC(C)=C2C(=O)Nc2cc(C(=O)O)ccn2)c(Cl)c1 [Compound 54, (S)-2-(4-(2-chloro-4-methoxyphenyl)-2-((6-fluorobenzo[d]oxazol-2-yl)amino)-6-methyl-1,4-dihydropyrimidine-5-carboxamido)isonicotinic acid] | 4.84 | 4.85 | 19.3 | 19.3 | – |
| CCn1cc(CNC(=O)C2=C(C)NC(Nc3nc4cccc(N)c4o3)=NC2c2ccc(F)cc2Cl)cn1 (stereo not drawn) [Compound 118, 2-((7-aminobenzo[d]oxazol-2-yl)amino)-4-(2-chloro-4-fluorophenyl)-N-((1-ethyl-1H-pyrazol-4-yl)methyl)-6-methyl-1,4-dihydropyrimidine-5-carboxamide] | – | 0.76 | – | 7.69 | Perm. (1 × 10^−6 cm/sec) (PAMPA permeability; PAMPA): 188.9 1 × 10^−6 cm/sec; Metab. Stabil. (m) ([1]; microsomal stability half-life): 18.81 m |
| COC(=O)c1ccccc1NC(=O)C1=C(C)NC(Nc2nc3ccccc3o2)=NC1c1ccccc1Cl (stereo not drawn) [Compound 146] | – | – | – | – | hGALK IC50 (recombinant human GALK1; Tables 2-15, 35 μM ATP, 100 μM galactose, 1 h, bracketed figure after some values (e.g. −1.2) is undefined and not reported): inactive; hGALK (μM) (recombinant human GALK1; recombinant human GALK1, Kinase-Glo Plus ATP depletion): in- active; mGALK IC50 (recombinant mouse GALK1; Tables 2-15, 35 μM ATP, 100 μM galactose, 1 h, bracketed figure after some values is undefined and not reported): inactive; mGALK (μM) (recombinant mouse GALK1; recombinant mouse GALK1, Kinase-Glo Plus ATP depletion): in- active |
| CC1=C(C(=O)Nc2ccccc2C(=O)O)C(c2ccccc2Cl)N=C(Nc2nc3ccccc3o2)N1 (stereo not drawn) [Compound 159, 2-(2-(benzo[d]oxazol-2-ylamino)-4-(2-chlorophenyl)-6-methyl-1,4-dihydropyrimidine-5-carboxamido)benzoic acid] | – | 34.4 | – | – | – |

More lines, main results first:

| IC50 (recombinant human GALK1; [3]) [µM] | IC50 (recombinant human GALK1; [4]) [µM] | IC50 (recombinant mouse GALK1; [5]) [µM] | IC50 (recombinant mouse GALK1; [6]) [µM] | Compound | further results |
| --- | --- | --- | --- | --- | --- |
| – | 3.85 | 9.68 | 9.68 | CC1=C(C(=O)Nc2ccc(O)cc2)C(c2ccccc2Cl)N=C(Nc2nc3ccccc3o2)N1 (stereo not drawn) [Compound 162, 2-(benzo[d]oxazol-2-ylamino)-N-(4-hydroxyphenyl)-4-(2-chlorophenyl)-6-methyl-1,4-dihydropyrimidine-5-carboxamide] | Perm. (1 × 10^−6 cm/sec) (PAMPA permeability; PAMPA): <14.5 1 × 10^−6 cm/sec; Metab. Stabil. (m) ([1]; microsomal stability half-life): >30 m |
| 6.11 | 6.11 | – | – | COC(=O)Cc1nnc(NC(=O)C2=C(C)NC(Nc3nc4ccccc4o3)=NC2c2ccccc2Cl)s1 (stereo not drawn) [Compound 174, methyl 2-(5-(2-(benzo[d]oxazol-2-ylamino)-4-(2-chlorophenyl)-6-methyl-1,4-dihydropyrimidine-5-carboxamido)-1,3,4-thiadiazol-2-yl)acetate] | Metab. Stabil. (m) ([1]; microsomal stability half-life): 8.0854 m; Sol. [2]: <1 µg/mL |
| 6.85 | 6.85 | 12.2 | 12.2 | CC1=C(C(=O)Nc2ccc(-c3cn[nH]c3)cc2)C(c2ccccc2Cl)N=C(Nc2nc3ccccc3o2)N1 (stereo not drawn) [Compound 179, N-(4-(1H-pyrazol-4-yl)phenyl)-2-(benzo[d]oxazol-2-ylamino)-4-(2-chlorophenyl)-6-methyl-1,4-dihydropyrimidine-5-carboxamide] | – |
| 24.3 | 24.3 | 34.3 | 34.3 | CC1=C(C(=O)Nc2ccc(-n3cncn3)cc2)C(c2ccccc2Cl)N=C(Nc2nc3ccccc3o2)N1 (stereo not drawn) [Compound 191, N-(4-(1H-1,2,4-triazol-1-yl)phenyl)-2-(benzo[d]oxazol-2-ylamino)-4-(2-chlorophenyl)-6-methyl-1,4-dihydropyrimidine-5-carboxamide] | – |
| 9.68 | 9.68 | 19.3 | 19.3 | CC1=C(C(=O)Nc2nc(C(=O)O)cs2)C(c2ccccc2Cl)N=C(Nc2nc3ccccc3o2)N1 (stereo not drawn) [Compound 200, 2-(2-(benzo[d]oxazol-2-ylamino)-4-(2-chlorophenyl)-6-methyl-1,4-dihydropyrimidine-5-carboxamido)thiazole-4-carboxylic acid] | – |
| 17.2 | 17.2 | – | – | CC1=C(C(=O)Nc2cccc(CCO)c2)C(c2ccccc2Cl)N=C(Nc2nc3ccccc3o2)N1 (stereo not drawn) [Compound 201, 2-(benzo[d]oxazol-2-ylamino)-4-(2-chlorophenyl)-N-(3-(2-hydroxyethyl)phenyl)-6-methyl-1,4-dihydropyrimidine-5-carboxamide] | Metab. Stabil. (m) ([1]; microsomal stability half-life): 26.59 m |
| 6.85 | – | 10.9 | 10.9 | CC1=C(C(=O)NCc2ccccc2O)C(c2ccccc2Cl)N=C(Nc2nc3ccccc3o2)N1 (stereo not drawn) [Compound 219, 2-(benzo[d]oxazol-2-ylamino)-4-(2-chlorophenyl)-N-(2-hydroxybenzyl)-6-methyl-1,4-dihydropyrimidine-5-carboxamide] | Perm. (1 × 10^−6 cm/sec) (PAMPA permeability; PAMPA): <19.3 1 × 10^−6 cm/sec; Metab. Stabil. (m) ([1]; microsomal stability half-life): 5.188 m |
